In US11051515B2, “3-acyl-benzamides and their use as herbicides” (Bayer Aktiengesellschaft, priority 2017, dated 2021):

Experiments:
AVEFA [1] = test: Post-emergence action against AVEFA; type: in vivo, Avena fatua; conditions: post-emergence, dosage 80 g/ha, visual assessment about 3 weeks after treatment vs untreated controls
Protocol: (§1) Seeds of monocotyledonous and dicotyledonous weed and crop plants are laid out in sandy loam soil in wood-fiber pots, covered with soil and cultivated in a greenhouse under good growth conditions. 2 to 3 weeks after sowing, the test plants are treated at the one-leaf stage. The compounds of the invention, formulated in the form of wettable powders (WP) or as emulsion concentrates (EC), are then sprayed onto the green parts of the plants in the form of an aqueous suspension or emulsion at a water application rate equating to […], with addition of 0.2% wetting agent. After the test plants have been left to stand in the greenhouse under optimal growth conditions for about 3 weeks, the action of the preparations is assessed visually in comparison to untreated controls (herbicidal action in percent (%): 100% activity=the plants have died, 0% activity=like control plants). […] At the same time, inventive compounds leave Gramineae crops such as barley, wheat, rye, millet/Sorghum, corn or rice virtually undamaged when applied post-emergence, even at high active ingredient dosages. In addition, some substances are also harmless to dicotyledonous crops such as soya, cotton, oilseed rape, sugar beet or potatoes. Some of the compounds according to the invention have high selectivity and are therefore suitable for controlling unwanted vegetation in agricultural crops by the post-emergence method. The data of Tables B18 to B34 below illustrate, in an exemplary manner, the […] herbicidal action of the compounds according to the invention, the herbicidal activity being stated in percent.

ECHCG [2] = test: Pre-emergence action against ECHCG; type: in vivo, Echinochloa crus-galli; conditions: pre-emergence, dosage 320 g/ha, scored visually after 3 weeks vs untreated controls
In short: (§2)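 Seeds sown in sandy loam in wood-fiber pots and covered with soil. Greenhouse growth; visual damage scored after 3 weeks versus untreated controls (100% = dead, 0% = like control).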

ECHCG [3] = test: Post-emergence action against ECHCG; type: in vivo, Echinochloa crus-galli; conditions: post-emergence, dosage 80 g/ha, visual assessment about 3 weeks after treatment vs untreated controls
In short: (§3)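 Post-emergence foliar spray on greenhouse plants at the one-leaf stage, using wettable-powder or emulsion-concentrate formulations in water (600 to […], plus 0.2% wetting agent). Damage scored by eye roughly 3 weeks later against untreated plants: 0% = like control, 100% = dead.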

PHBPU [4] = test: Post-emergence action against PHBPU; type: in vivo, Pharbitis purpurea; conditions: post-emergence, dosage 80 g/ha
In short: as §3

VIOTR [5] = test: Post-emergence action against VIOTR; type: in vivo, Viola tricolor; conditions: for Post-emergence action against VIOTR: dosage 80 g/ha
In short: as §3

SETVI [6] = test: Post-emergence action against SETVI; type: in vivo, Setaria viridis; conditions: for Post-emergence action against SETVI (herbicidal action in percent): dosage 80 g/ha, visual assessment about 3 weeks after treatment vs untreated controls
In short: as §3

POLCO [7] = test: Post-emergence action against POLCO; type: in vivo, Polygonum convolvulus; conditions: post-emergence, dosage 80 g/ha
Protocol: as §1

MATIN [8] = test: Post-emergence action against MATIN; type: in vivo, Matricaria inodora; conditions: for Post-emergence action against MATIN (herbicidal action in percent): dosage 80 g/ha, visual assessment about 3 weeks after treatment vs untreated controls
In short: as §3

VERPE [9] = test: Post-emergence action against VERPE; type: in vivo, Veronica persica; conditions: dosage 80 g/ha
In short: as §3

VERPE [10] = test: Pre-emergence action against VERPE; type: in vivo, Veronica persica; conditions: Dosage 320 g/ha, pre-emergence
In short: as §2

STEME [11] = test: Post-emergence action against STEME; type: in vivo, Stellaria media; conditions: for Post-emergence action against STEME: dosage 80 g/ha
In short: as §3

ABUTH [12] = test: Post-emergence action against ABUTH; type: in vivo, Abutilon theophrasti; conditions: for Post-emergence action against ABUTH (herbicidal action in percent): dosage 80 g/ha, visual assessment about 3 weeks after treatment vs untreated controls
In short: as §3

ALOMY [13] = test: Pre-emergence action against ALOMY; type: in vivo, Alopecurus myosuroides; conditions: for Pre-emergence action against ALOMY (herbicidal activity in percent): dosage 320 g/ha, scored visually after 3 weeks vs untreated controls, 100% = plants have died, 0% = like control plants
In short: as §2

STEME [14] = test: Pre-emergence action against STEME; type: in vivo, Stellaria media; conditions: for Pre-emergence action against STEME: Dosage 320 g/ha
In short: as §2

POLCO [15] = test: Pre-emergence action against POLCO; type: in vivo, Polygonum convolvulus; conditions: Dosage 320 g/ha, pre-emergence
In short: as §2

CYPES [16] = test: Pre-emergence action against CYPES; type: in vivo, Cyperus esculentus; conditions: for Herbicidal efficacy against CYPES: 80 g of a.i./ha; for Pre-emergence action against CYPES (herbicidal activity): dosage 320 g/ha, scored visually after 3 weeks vs untreated controls
In short: as §2

ABUTH [17] = test: Pre-emergence action against ABUTH; type: in vivo, Abutilon theophrasti; conditions: pre-emergence, dosage 320 g/ha, scored visually after 3 weeks vs untreated controls
In short: as §2

AMARE [18] = test: Pre-emergence action against AMARE; type: in vivo, Amaranthus retroflexus; conditions: pre-emergence, dosage 320 g/ha, scored visually after 3 weeks vs untreated controls
In short: as §2

AMARE [19] = test: Post-emergence action against AMARE; type: in vivo, Amaranthus retroflexus; conditions: for Post-emergence action against AMARE (herbicidal action in percent): dosage 80 g/ha, visual assessment about 3 weeks after treatment vs untreated controls
In short: as §3

VIOTR [20] = test: Pre-emergence action against VIOTR; type: in vivo, Viola tricolor; conditions: for Pre-emergence action against VIOTR: Dosage 320 g/ha
In short: as §2

SETVI [21] = test: Pre-emergence action against SETVI; type: in vivo, Setaria viridis; conditions: for SETVI (Table B8, pre-emergence herbicidal activity): dosage 320 g/ha, scored visually after 3 weeks vs untreated controls
In short: as §2

MATIN [22] = test: Pre-emergence action against MATIN; type: in vivo, Matricaria inodora; conditions: for Pre-emergence action against MATIN: Dosage 320 g/ha
In short: as §2

ALOMY [23] = test: Post-emergence action against ALOMY; type: in vivo, Alopecurus myosuroides; conditions: Dosage 80 g/ha, post-emergence
Protocol: as §1

PHBPU [24] = test: Pre-emergence action against PHBPU; type: in vivo, Pharbitis purpurea; conditions: Dosage 320 g/ha, pre-emergence
In short: as §2

CYPES [25] = test: Post-emergence action against CYPES; type: in vivo, Cyperus esculentus; conditions: post-emergence, dosage 80 g/ha, visual assessment about 3 weeks after treatment vs untreated controls
In short: as §3

AVEFA [26] = test: Pre-emergence action against AVEFA; type: in vivo, Avena fatua; conditions: dosage 320 g/ha, scored visually after 3 weeks vs untreated controls
In short: as §2

[27] = Table V17, post-emergence, 5 g of a.i./ha
[28] = Table V19, post-emergence, 5 g of a.i./ha
[29] = Table V21, post-emergence, 5 g of a.i./ha
[30] = Table V10, pre-emergence, 80 g of a.i./ha

Row | SMILES | Post-emergence action against AVEFA (herbicidal action in percent) (AVEFA [1]) [%] | Pre-emergence action against ECHCG (herbicidal activity) (ECHCG [2]) [%] | Post-emergence action against ECHCG (herbicidal action in percent) (ECHCG [3]) [%] | Post-emergence action against PHBPU (PHBPU [4]) | Post-emergence action against VIOTR (VIOTR [5]) | Post-emergence action against SETVI (herbicidal action in percent) (SETVI [6]) [%] | Post-emergence action against POLCO (POLCO [7]) | Post-emergence action against MATIN (herbicidal action in percent) (MATIN [8]) [%] | Pre-emergence action against VERPE (VERPE [10]) [%] | Post-emergence action against STEME (STEME [11]) | Post-emergence action against ABUTH (herbicidal action in percent) (ABUTH [12]) [%] | Pre-emergence action against STEME (STEME [14]) [%] | Pre-emergence action against POLCO (POLCO [15]) [%] | Pre-emergence action against CYPES (herbicidal activity) (CYPES [16]) [%] | Pre-emergence action against ABUTH (herbicidal activity) (ABUTH [17]) [%] | Pre-emergence action against AMARE (herbicidal activity) (AMARE [18]) [%] | Post-emergence action against AMARE (herbicidal action in percent) (AMARE [19]) [%] | Pre-emergence action against VIOTR (VIOTR [20]) [%] | SETVI (Table B8, pre-emergence herbicidal activity) (SETVI [21]) [%] | Pre-emergence action against MATIN (MATIN [22]) [%] | further results
1 | CCn1nnnc1NC(=O)c1ccc(S(C)(=O)=O)c(C(C)=O)c1C [2-7] | 100 | 100 | 100 | 80 | 100 | 100 | 100 | 100 | 100 | 100 | 100 | 90 | 90 | 100 | 100 | 100 | 100 | 100 | 100 | 100 | Herbicidal efficacy against VIOTR (VIOTR [5]; [27]): 100; VIOTR (VIOTR [5]; [28]): 100; SETVI (SETVI [6]; [28]): 90; Herbicidal efficacy against MATIN (MATIN [8]; [27]): 100; MATIN (MATIN [8]; [28]): 100; Post-emergence action against VERPE (VERPE [9]): 100; STEME (STEME [11]; [28]): 100; Herbicidal efficacy against STEME (STEME [11]; [29]): 100; ABUTH (ABUTH [12]; [28]): 100; Herbicidal efficacy against ABUTH (ABUTH [12]; [29]): 100; Herbicidal efficacy against ALOMY (ALOMY [13]; [30]): 70; Pre-emergence action against ALOMY (herbicidal activity in percent) (ALOMY [13]): 80%; Herbicidal efficacy against STEME (STEME [14]; [30]): 90; Herbicidal efficacy against CYPES (CYPES [16]; Table V10, pre-emergence): 90; Herbicidal efficacy against CYPES (CYPES [16]; Table V11, pre-emergence): 90; Herbicidal efficacy against AMARE (AMARE [19]; [29]): 100; Herbicidal efficacy against VIOTR (VIOTR [20]; Table V12, pre-emergence, 20 g of a.i./ha): 90; Herbicidal efficacy against SETVI (SETVI [21]; [30]): 80; Herbicidal efficacy against MATIN (MATIN [22]; [30]): 100
2 | CCn1nnnc1NC(=O)c1ccc(C(F)(F)F)c(C(=O)CCl)c1Cl [2-145] |  | 90 | 100 | 100 | 100 | 100 | 80 |  | 100 | 100 | 100 | 100 | 90 | 100 | 100 | 100 | 100 | 100 | 100 | 100 | Post-emergence action against ALOMY (ALOMY [23]): 80%
3 | CCCn1nnnc1NC(=O)c1ccc(S(C)(=O)=O)c(C(C)=O)c1C [3-7] | 100 | 100 | 100 | 90 | 100 | 100 | 80 | 100 | 100 | 100 | 100 | 90 | 90 | 100 | 100 | 100 | 100 | 100 | 100 | 100 | Pre-emergence action against PHBPU (PHBPU [24]): 90%; Post-emergence action against CYPES (herbicidal action in percent) (CYPES [25]): 80%; Pre-emergence action against AVEFA (herbicidal activity) (AVEFA [26]): 90%; Post-emergence action against VERPE (VERPE [9]): 100; Pre-emergence action against ALOMY (herbicidal activity in percent) (ALOMY [13]): 80%
4 | CCCn1nnnc1NC(=O)c1ccc(SC)c(C(=O)C2CC2)c1Cl [3-123] | 100 | 90 | 100 | 90 | 100 | 90 | 90 | 100 | 100 | 100 | 80 | 90 | 80 | 80 | 100 | 100 | 100 | 100 | 100 | 100 | Pre-emergence action against AVEFA (herbicidal activity) (AVEFA [26]): 100%; Post-emergence action against VERPE (VERPE [9]): 100
